In patent US8889667B2 (Agios Pharmaceuticals, Inc, priority 2010, dated 2014):

Each molecule was assayed against PKM2 (Homo sapiens, UniProt P14618) (assay: PKM2 Assay (activation, LDH-coupled, absorbance at 340 nm)). Conditions: Table 5.
Type: biochemical
Summary of the method: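 Read-out was the 340 nm NADH absorbance change at 25 °C in an LDH-coupled system (PEP 0.15 mM, NADH 180 μM, ADP 0.7 mM to initiate) in 50 mM Tris pH 7.5, 100 mM KCl, 5 mM MgCl2. PKM2 at 50 ng/well was first preincubated with compound for 30 min at 4 °C. Activation given as AC50.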

PKM2, sequence (P14618 whole entry): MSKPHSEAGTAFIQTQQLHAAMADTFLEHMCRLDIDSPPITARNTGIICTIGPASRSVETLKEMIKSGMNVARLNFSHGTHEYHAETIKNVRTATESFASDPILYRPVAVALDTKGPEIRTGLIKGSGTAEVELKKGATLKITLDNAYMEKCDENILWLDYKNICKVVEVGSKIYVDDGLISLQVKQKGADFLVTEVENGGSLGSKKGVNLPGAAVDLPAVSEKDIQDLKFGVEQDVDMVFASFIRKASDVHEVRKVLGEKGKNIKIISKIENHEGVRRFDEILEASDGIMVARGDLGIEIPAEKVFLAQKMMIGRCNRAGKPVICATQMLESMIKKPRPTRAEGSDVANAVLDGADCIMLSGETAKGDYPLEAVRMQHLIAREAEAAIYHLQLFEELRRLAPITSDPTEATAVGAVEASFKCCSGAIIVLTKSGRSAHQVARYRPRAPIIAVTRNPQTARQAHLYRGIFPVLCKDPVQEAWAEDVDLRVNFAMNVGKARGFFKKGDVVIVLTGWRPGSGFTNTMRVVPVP

AC50, < 100 nM:
O=C(c1ccc(NS(=O)(=O)c2cccc3cccnc23)cc1)N1CCN(Cc2ccc(F)cc2)CC1 [Compound 341, N-(4-(4-(4-fluorobenzyl)piperazine-1-carbonyl)phenyl)quinoline-8-sulfonamide]
O=C(c1ccc(NS(=O)(=O)c2cccc3cccnc23)cc1)N1CCN(C(=O)c2cncs2)CC1 [Compound 348, N-(4-(4-(thiazole-5-carbonyl)piperazine-1-carbonyl)phenyl)quinoline-8-sulfonamide]
O=C(c1ccc(NS(=O)(=O)c2cccc3cccnc23)cc1)N1CCN(C(c2ccc(F)cc2)C(F)(F)F)CC1 (stereo not drawn) [Compound 351, N-(4-(4-(2,2,2-trifluoro-1-(4-fluorophenyl)ethyl)piperazine-1-carbonyl)phenyl)quinoline-8-sulfonamide]
O=C(c1ccc(NS(=O)(=O)c2cccc3cccnc23)cc1)N1CCN(C(=O)c2ncc[nH]2)CC1 [Compound 354, N-(4-(4-(1H-imidazole-2-carbonyl)piperazine-1-carbonyl)phenyl)quinoline-8-sulfonamide]
COc1cc(NS(=O)(=O)c2cccc3cccnc23)ccc1C(=O)N1CCN(C(C)(C)c2ccccc2)CC1 [Compound 355, N-(3-methoxy-4-(4-(2-phenylpropan-2-yl)piperazine-1-carbonyl)phenyl)quinoline-8-sulfonamide]
COc1cc(C(=O)N2CCN(C(C)(C)c3ccccc3)CC2)ccc1NS(=O)(=O)c1cccc2cccnc12 [Compound 356, N-(2-methoxy-4-(4-(2-phenylpropan-2-yl)piperazine-1-carbonyl)phenyl)quinoline-8-sulfonamide]
CC(c1c(F)cccc1F)N1CCN(C(=O)c2ccc(NS(=O)(=O)c3cccc4cccnc34)cc2)CC1 (stereo not drawn) [Compound 357, N-(4-(4-(1-(2,6-difluorophenyl)ethyl)piperazine-1-carbonyl)phenyl)quinoline-8-sulfonamide]
O=C(c1ccc(NS(=O)(=O)c2cccc3cccnc23)cc1)N1CCN(C(c2ccccc2)C(F)(F)F)CC1 (stereo not drawn) [Compound 358, N-(4-(4-(2,2,2-trifluoro-1-phenylethyl)piperazine-1-carbonyl)phenyl)quinoline-8-sulfonamide]
CC(C)(c1ccccc1)N1CCN(C(=O)c2ccc(NS(=O)(=O)c3cccc4cccnc34)cc2)CC1 [Compound 364]
O=C(c1ccc(NS(=O)(=O)c2cccc3cccnc23)cc1)N1CCN(C(=O)c2ccno2)CC1 [Compound 365, N-(4-(4-(isoxazole-5-carbonyl)piperazine-1-carbonyl)phenyl)quinoline-8-sulfonamide]
CC(c1cccnc1)N1CCN(C(=O)c2ccc(NS(=O)(=O)c3cccc4cccnc34)cc2)CC1 (stereo not drawn) [Compound 370, N-(4-(4-(1-(pyridin-3-yl)ethyl)piperazine-1-carbonyl)phenyl)quinoline-8-sulfonamide]
O=C(c1ccc(NS(=O)(=O)c2cccc3cccnc23)cc1)N1CCN(C(=O)c2nccs2)CC1 [Compound 371, N-(4-(4-(thiazole-2-carbonyl)piperazine-1-carbonyl)phenyl)quinoline-8-sulfonamide]
O=C(c1ccc(NS(=O)(=O)c2cccc3cccnc23)cc1)N1CCN(C(=O)c2cn[nH]c2)CC1 [Compound 372]

AC50, 100 to 500 nM:
O=C(c1ccc(NS(=O)(=O)c2cccc3cccnc23)c(OC(F)(F)F)c1)N1CCN(Cc2ccc(Cl)cc2F)CC1 [Compound 339, N-(4-(4-(4-chloro-2-fluorobenzyl)piperazine-1-carbonyl)-2-(trifluoromethoxy)phenyl)quinoline-8-sulfonamide]
CC(C)(c1ccccc1)N1CCN(C(=O)c2ccc(NS(=O)(=O)c3cccc4cccnc34)c(OC(F)(F)F)c2)CC1 [Compound 340, N-(4-(4-(2-phenylpropan-2-yl)piperazine-1-carbonyl)-2-(trifluoromethoxy)phenyl)quinoline-8-sulfonamide]
O=C(c1ccc(NS(=O)(=O)c2cccc3cccnc23)cc1)N1CCN(C(=O)c2cc(F)cc(F)c2)CC1 [Compound 345, N-(4-(4-(3,5-difluorobenzoyl)piperazine-1-carbonyl)phenyl)quinoline-8-sulfonamide]
O=C(c1ccc(NS(=O)(=O)c2cccc3cccnc23)cc1)N1CCN(C(=O)c2cocn2)CC1 [Compound 347, N-(4-(4-(oxazole-4-carbonyl)piperazine-1-carbonyl)phenyl)quinoline-8-sulfonamide]
O=C(c1ccc(NS(=O)(=O)c2cccc3cccnc23)cc1)N1CCN(C(=O)c2c[nH]cn2)CC1 [Compound 349, N-(4-(4-(1H-imidazole-4-carbonyl)piperazine-1-carbonyl)phenyl)quinoline-8-sulfonamide]
O=C(c1ccc(NS(=O)(=O)c2cccc3cccnc23)cc1)N1CCN(C(=O)c2cc[nH]n2)CC1 [Compound 350, N-(4-(4-(1H-pyrazole-3-carbonyl)piperazine-1-carbonyl)phenyl)quinoline-8-sulfonamide]
COc1cc(C(=O)N2CCN(C3(c4ccccc4)CC3)CC2)ccc1NS(=O)(=O)c1cccc2cccnc12 [Compound 352, N-(2-methoxy-4-(4-(1-phenylcyclopropyl)piperazine-1-carbonyl)phenyl)quinoline-8-sulfonamide]
CC(C)(C(=O)N1CCN(C(=O)c2ccc(NS(=O)(=O)c3cccc4cccnc34)c(OC(F)(F)F)c2)CC1)c1ccccc1 [Compound 359, N-(4-(4-(2-methyl-2-phenylpropanoyl)piperazine-1-carbonyl)-2-(trifluoromethoxy)phenyl)quinoline-8-sulfonamide]
O=C(c1ccc(NS(=O)(=O)c2cccc3cccnc23)c(OC(F)(F)F)c1)N1CCN(C(=O)c2ccccc2F)CC1 [Compound 360]
CC(C)(C(=O)N1CCN(C(=O)c2ccc(NS(=O)(=O)c3cccc4cccnc34)c(OC(F)(F)F)c2)CC1)c1ccc(F)cc1 [Compound 362]
O=C(c1ccncc1)N1CCN(C(=O)c2ccc(NS(=O)(=O)c3cccc4cccnc34)c(OC(F)(F)F)c2)CC1 [Compound 363]
O=C(c1ccc(NS(=O)(=O)c2cccc3cccnc23)c(OC(F)(F)F)c1)N1CCN(Cc2cnccc2C(F)(F)F)CC1 [Compound 366, N-(2-(trifluoromethoxy)-4-(4-((4-(trifluoromethyl)pyridin-3-yl)methyl)piperazine-1-arbonyl)phenyl)quinoline-8-sulfonamide]
O=C(c1ccc(NS(=O)(=O)c2cccc3cccnc23)c(OC(F)(F)F)c1)N1CCN(Cc2cncc(Cl)c2)CC1 [Compound 367, N-(4-(4-((5-chloropyridin-3-yl)methyl)piperazine-1-carbonyl)-2-(trifluoromethoxy)phenyl)quinoline-8-sulfonamide]
COc1ncccc1CN1CCN(C(=O)c2ccc(NS(=O)(=O)c3cccc4cccnc34)c(OC(F)(F)F)c2)CC1 [Compound 368, N-(4-(4-((2-methoxypyridin-3-yl)methyl)piperazine-1-carbonyl)-2-(trifluoromethoxy)phenyl)quinoline-8-sulfonamide]
COc1cccnc1CN1CCN(C(=O)c2ccc(NS(=O)(=O)c3cccc4cccnc34)c(OC(F)(F)F)c2)CC1 [Compound 373, N-(4-(4-((3-methoxypyridin-2-yl)methyl)piperazine-1-carbonyl)-2-(trifluoromethoxy)phenyl)quinoline-8-sulfonamide]
O=C(c1ccc(NS(=O)(=O)c2cccc3cccnc23)c(OC(F)(F)F)c1)N1CCN(Cc2cccc(F)c2F)CC1 [Compound 375, N-(4-(4-(2,3-difluorobenzyl)piperazine-1-carbonyl)-2-(trifluoromethoxy)phenyl)quinoline-8-sulfonamide]

AC50, 500 to 1000 nM:
O=C(Oc1ccccn1)N1CCN(C(=O)c2ccc(NS(=O)(=O)c3cccc4cccnc34)c(OC(F)(F)F)c2)CC1 [Compound 344, Pyridin-2-yl4-(4-(quinoline-8-sulfonamido)-3-(trifluoromethoxy)benzoyl)piperazine-1-carboxylate]
Cc1cnc(C(=O)N2CCN(C(=O)c3ccc(NS(=O)(=O)c4cccc5cccnc45)cc3)CC2)cn1 [Compound 346, N-(4-(4-(5-methylpyrazine-2-carbonyl)piperazine-1-carbonyl)phenyl)quinoline-8-sulfonamide]
O=C(c1ccc(NS(=O)(=O)c2cccc3cccnc23)c(OC(F)(F)F)c1)N1CCN(C2(c3ccccc3)CC2)CC1 [Compound 353, N-(4-(4-(1-phenylcyclopropyl)piperazine-1-carbonyl)-2-(trifluoromethoxy)phenyl)quinoline-8-sulfonamide]
O=C(Cc1ccccc1F)N1CCN(C(=O)c2ccc(NS(=O)(=O)c3cccc4cccnc34)c(OC(F)(F)F)c2)CC1 [Compound 361]
O=C(c1ccc(NS(=O)(=O)c2cccc3cccnc23)c(OC(F)(F)F)c1)N1CCN(Cc2ccc(F)cc2F)CC1 [Compound 369, N-(4-(4-(2,4-difluorobenzyl)piperazine-1-carbonyl)-2-(trifluoromethoxy)phenyl)quinoline-8-sulfonamide]
O=C(c1ccc(NS(=O)(=O)c2cccc3cccnc23)c(OC(F)(F)F)c1)N1CCN(Cc2ccc(Cl)cc2Cl)CC1 [Compound 374, N-(4-(4-(2,4-dichlorobenzyl)piperazine-1-carbonyl)-2-(trifluoromethoxy)phenyl)quinoline-8-sulfonamide]

AC50, 1000 to 20000 nM:
O=C(O[C@H]1CCOC1)N1CCN(C(=O)c2ccc(NS(=O)(=O)c3cccc4cccnc34)c(OC(F)(F)F)c2)CC1 [Compound 343, (S)-Tetrahydrofuran-3-yl-4-(4-(quinoline-8-sulfonamido)-3-(trifluoromethoxy)benzoyl)piperazine-1-carboxylate]
